Results as given in patent EP0326134A1, “4-Amino-2,3-disubstituted-6,7-dihydro-5H-1-pyridine derivatives, process for their preparation and medicaments containing them” (NAUCHNO-ISSLEDOVATELSKY INSTITUT TEKHNOLOGII I BEZOPASNOSTI …, priority 1988, dated 1989).

Tests used:
[1] = Acute toxicity, single intraperitoneal injection, probit analysis (LD50); format: in vivo, Mäusen; settings: mouse, in vivo, ip, mice, i.p., read-out: LD50
Excerpt: Ihre akute Toxizität wurde an Mäusen (einmalige intraperitoneale Injektion) nach der Methode der Probit-Analyse nach Zichtfield, Wilcoxon, t949 untersucht. In Tabelle 2 sind die Parameter der akuten Toxizität (LDso) angegeben, die eine mäßige Toxizität der erfindungsgemäßen Verbindungen belegen.

[2] = Side effects and CNS/behaviour: tremor (TD50), sedative and m-cholinomimetic effects; format: in vivo; settings: in vivo
Excerpt: Von Interesse ist der Einfluß der erfindungsgemäßen Verbindungen auf das ZNS und das Verhalten der Tiere.

[3] = tested on: durch Skopolamin hervorgerufene Amnesie; test: Dark avoidance assay (passive avoidance), scopolamine-induced amnesia; format: in vivo, Mäusen; settings: mice, compound s.c. 5 min before learning, Skopolamin i.p. 30 min before
[4] = tested on: Nerven-Muskel-Präparat von Mäusen (n.peroneus-m.extensor digitorum longus); test: Neuromuscular transmission in isolated nerve-muscle preparation (EPP, minEPP)
How it was run: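 Mouse peroneal nerve–extensor digitorum longus preparation, isolated and perfused with O2/CO2-gassed Lilly solution. EPPs and spontaneous minEPPs were recorded by magnetograph, then analysed by computer for frequency, amplitude and duration.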

[5] = tested on: Uterus der Ratte; test: Contractile activity of smooth muscle: rat uterus; settings: Rattus norvegicus, Uterus der Ratte; Konzentration 1.10^-4 Mol; n = 9; read-out: Serotonin 1.10^-6 (Mol): Amplitude, % bezogen auf die Kontrolle
Excerpt: (§1) In Versuchen an glattmpskulären Organen (Uterus, Samenleiter der Ratte und Krummdarm des Meerschweinchens) wurden die Wirkung der erfindungsgemäßen Verbindungen auf die kontraktile Aktivität der glatten Muskeln und ihre Reaktionen auf den Einfluß von Acetylcholin, Serotonin, Adrenalin und KCI als Agonisten untersucht. Mit Hilfe eines Schreibers wurden die Amplitude und die Dauer der Kontraktion der glatten Muskeln unter Verwendung eines Geräts vom Typ Mechanstron-untersucht.

[6] = tested on: Samenleiter der Ratte; test: Contractile activity of smooth muscle: rat vas deferens; settings: Rattus norvegicus, Samenleiter der Ratte; Konzentration 1.10^-4 Mol; n = 9; read-out: Adrenalin 1.10^-6: Amplitude, % bezogen auf d.Kontrolle
Excerpt: as §1

[7] = molecular target: T1, Acetylcholinesterase menschlicher Erythrozyten (Homo sapiens, UniProt P22303); test: Acetylcholinesterase inhibition, spectrophotometric; format: biochemical; settings: Acetylcholinesteraseinhibierung bei menschlichen Erythrozyten IK, (Mol), human erythrocyte enzyme
T1 construct: Acetylcholin-esteraseinhi-bierung bei menschlichen Erythrozyten; from tissue; host or cells: human erythrocytes
Excerpt: Untersucht wurden die Wirkmechanismen der erfindungsgemäßen Verbindungen: • 1. Die Wirkung auf Acetylcholinesterase menschlicher Erythrozyten auf spektrofotometrischem Wege. • 2.

[8] = tested on: K -Durchlässigkeit der Membrane des Ranvier-Schnürringes; test: K+ permeability of the node of Ranvier membrane, voltage clamp; parameters: species or system Frosches; settings: node of Ranvier, frog sciatic nerve fibres, voltage clamp; concentration giving 50 % block of ion permeability; read-out: Blockierung der K^+-Durchlässigkeit der Membrane Ic50 (Mol)
Excerpt: (§2) Untersucht wurden die Wirkmechanismen der erfindungsgemäßen Verbindungen: • 1. Die Wirkung auf Acetylcholinesterase menschlicher Erythrozyten auf spektrofotometrischem Wege. • 2. Die Wirkung auf die K - und Na -Durchlässigkeit der Membrane des Ranvier-Schnürringes (s. Fox T.M. et al. "Modification of ionic membrane currrents of Ranvier nodes by UV-radiation under voltage clamp conditions", Experientia, 27, 1289-1290 /1971/ und Arhom P. et al. "Local anesthetics: effects on permeability properties of nodal membrane in myelynated nerve fibres from xenopus". Acta physiol. Scand. 91, 11-21 /1974/) der Nervenfasern des Hüftnervs des Frosches unter Anwendung der Methode der Messung der Membranspannung (Voltage-clampmethode) (s. Derksen H.E. "Axon membrane voltage fluctuations", Acta Physiol., Pharmacol Neer, 13, 373-466 /1965/).
(§3) Alle erfindungsgemäßen Verbindungen sind Blocker für die K^+-Durchlässigkeit der Membrane analog dem Amyridin. Die Salze der bicyclischen Basen blockieren jedoch stärker die Na -Durchlässigkeit der Membrane, was sich mit ihren sedativen und analgetischen Eigenschaften in Verbindung bringen läßt.

[9] = tested on: Na -Durchlässigkeit der Membrane des Ranvier-Schnürringes; test: Na+ permeability of the node of Ranvier membrane, voltage clamp; parameters: species or system Frosches; settings: node of Ranvier, frog sciatic nerve fibres, voltage clamp; concentration giving 50 % block of ion permeability; read-out: Blockierung der Na^+-Durchlässigkeit der Membrane Ic50 (Mol)
Excerpt: as §2, §3

T1 sequence (P22303 other isoform, or with tags, fused parts or gaps): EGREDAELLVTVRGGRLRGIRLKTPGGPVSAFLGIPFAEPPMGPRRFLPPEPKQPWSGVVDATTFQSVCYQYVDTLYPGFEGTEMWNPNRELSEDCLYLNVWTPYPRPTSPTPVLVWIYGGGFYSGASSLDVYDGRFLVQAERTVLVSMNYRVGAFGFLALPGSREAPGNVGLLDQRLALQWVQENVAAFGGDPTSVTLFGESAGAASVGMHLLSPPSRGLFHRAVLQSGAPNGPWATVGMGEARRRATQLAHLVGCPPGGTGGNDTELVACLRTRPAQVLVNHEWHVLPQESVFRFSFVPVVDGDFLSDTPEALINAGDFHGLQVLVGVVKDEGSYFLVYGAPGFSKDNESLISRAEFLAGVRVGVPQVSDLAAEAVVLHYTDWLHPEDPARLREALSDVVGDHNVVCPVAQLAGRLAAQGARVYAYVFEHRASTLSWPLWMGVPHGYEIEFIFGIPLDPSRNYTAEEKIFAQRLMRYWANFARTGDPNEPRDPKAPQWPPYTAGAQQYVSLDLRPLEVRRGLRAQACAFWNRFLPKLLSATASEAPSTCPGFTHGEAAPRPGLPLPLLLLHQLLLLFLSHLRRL

## CCCc1c(C)nc2c(c1N)CCC2 [Verbindung 24]
[1]
  LD50: 30 mg/kg
[2]; ED50 = dose blocking the effect of Skopolamin in 50 % of the animals (passive avoidance, mice), read-out: Verhältnis TD50 zu ED50
  selectivity ratio: 3
[2]; toxic dose causing tremor in 50 % of the animals
  TD50: 10 mg/kg
[3]
  Einfluß auf das Gedächtnis: Zahl der Tiere in %, bei denen die Skopolaminwirkung aufgehoben wurde: 68%
[4]; EPP = Endplattenpotential
  Stimulierung der Nerven-Muskelübertragung, in % der Amplitude: EPP: 25%
[4]; minEPP
  Stimulierung der Nerven-Muskelübertragung, in % der Amplitude: minEPP: 54%
[5]
  activity at 100 µM: 119%
[6]
  activity at 100 µM: 120%
[7]
  Ki: 0.0075 mM
[8]
  IC50: 4 mM
[9]
  IC50: 4.2 mM
